PMC10950897, “VCF1 is a p97/VCP cofactor promoting recognition of ubiquitylated p97-UFD1-NPL4 substrates” (Nature Communications, 2024)
Entries after “also recorded” stand apart in the source; their conditions may differ.

Key:
[1] = tested on: p97 (WT, truncations, Y143A); test: In vitro binding, StrepTactin pulldown of Strep-HA-VCF1 with purified p97 proteins; design: species or system human
Procedure: (§1) All in vitro binding experiments were performed in EBC or RIPA buffer as indicated. Recombinant Biotin-tagged K48-linked poly-ubiquitin chains (2−7) and K48-linked poly-ubiquitin chains (2−16) were purchased from R&D Systems and Enzo Life Science, respectively. Recombinant proteins were incubated with Strep-Tactin Sepharose (IBA), Glutathione agarose (Gold Biotechnology) or […] Fab-trap agarose (ChromoTek) overnight on an end-over-end rotator at 4 °C, washed six times with EBC or RIPA buffer, and resuspended in 2×Laemmli sample buffer. For p97, VCF1 or p47 pulldowns, antibodies (0.5 µg/sample) were coupled to agarose beads, incubated with recombinant proteins or cell lysates and washed with the indicated buffer. To assess p97-UFD1-NPL4 binding to ubiquitylated proteins in total cell extracts, U2OS cells were lysed in EBC buffer supplemented with protease and phosphatase inhibitors, sonicated and incubated on ice for 10 min. Lysates were cleared by centrifugation for 10 min at 16,100 × g. Cell lysate (40 µg) was added to recombinant proteins in EBC buffer, incubated overnight on the rotator with […] Fab-trap agarose (ChromoTek), and beads were washed six times.

[2] = tested on: p97-UFD1-NPL4 binding to ubiquitylated proteins; test: FLAG IP: p97-UFD1-NPL4 binding to ubiquitylated proteins in U2OS cell extracts; assay type: biochemical, human; details: U2OS total cell extracts, EBC buffer
Procedure: as §1

p97 = test: IP of endogenous VCF1 from U2OS cells; assay type: binding, human
Procedure: (§2) Immunoblotting was performed as previously described. Immunoprecipitation (IP) of HA-tagged proteins was performed using Anti-HA Affinity matrix (Roche) under denaturing conditions, unless otherwise stated. GFP-trap and […] Fab-trap agarose (Chromotek) were used according to manufacturer’s instructions. Cell lysis was performed using RIPA buffer (140 mM NaCl; 10 mM Tris-HCl, pH 8.0; 0.1% sodium deoxycholate; 1% Triton X-100; 0.1% SDS; 1 mM EDTA; 0.5 mM EGTA) or EBC buffer (50 mM Tris, pH 7.5; 150 mM NaCl; 1 mM EDTA; 0.5% NP-40, 1 mM DTT). IPs were washed in non-denaturing buffer (50 mM Tris-HCl, pH 7.5; 150 mM NaCl; 0.5 mM EDTA). Cell lysis and IP under partially denaturing conditions were performed using denaturing buffer (20 mM Tris-HCl, pH 7.5; 50 mM NaCl; 0.5% sodium deoxycholate; 0.5% NP-40; 0.5% SDS; 1 mM EDTA). All lysis and wash buffers were supplemented with 1 mM fresh PMSF Protease Inhibitor (Thermo), complete EDTA-free protease inhibitor Cocktail Tablets (Roche), 1.25 mM N-ethylmaleimide (Sigma) and 50 µM PR-619 (Calbiochem).

[3] = tested on: C1QBP; histone H3 (U2OS/GFP-VCF1 cells); test: GFP IP immunoblot for C1QBP and Histone H3; assay type: binding, human; details: U2OS/GFP-VCF1 WT
Procedure: as §2

p97-UFD1-NPL4 = test: Analytical gel filtration; assay type: binding, human; details: equimolar p97, UFD1-NPL4, VCF1 (5 µM), pH 7.4
Procedure: For analytical gel filtration, p97 alone (5 µM hexamer), or p97 (5 µM hexamer) with UFD1-NPL4 (5 µM) and VCF1 (5 µM) were mixed in a total volume of 25 µl in SEC buffer (50 mM HEPES, pH 7.4; 150 mM NaCl). Samples were separated by size exclusion chromatography on a Superose 6 3.2/300 column (Cytiva) equilibrated in SEC buffer using an ÄKTA Purifier 10 FPLC system (GE Healthcare). After the column dead volume (0.35 column volumes), fractions were collected (120 µl) and analyzed by immunoblotting.

p97 hexamer (His6-p97) = test: Mass photometry; assay type: binding, human; details: saturating VCF1, absence of other cofactors
Procedure: Mass photometry experiments were performed on a Refeyn One (Refeyn Ltd) mass photometer at room temperature. Measurements were run in triplicates, diluting 3 μl of protein sample (20 nM) in 15 μl PBS buffer loaded on a gasket (Grace Bio-Labs reusable CultureWell gaskets (GBL103250, Merck)) mounted on a glass microscope coverslip (0107222, Marienfeld). Experiments were performed with His6-p97 alone and in presence of saturating concentrations of full-length Strep-HA-VCF1. The molecular weight was obtained by contrast comparison with known molecular weight mass standard calibrants (NativeMark Unstained Protein Standard (LC0725), Thermo Fischer Scientific) measured on the same buffer and on the same day. Movies were recorded using AcquireMP (Refeyn Ltd, version 2022 R1), with a medium field of view and exposure time of 0.95 ms for the acquisition camera settings. A total of 6000 frames were recorded over a duration of one minute. Movies were processed and analysed with the DiscoverMP software (Refeyn Ltd, version 2022 R1) provided by the instrument manufacturer.

“VCF1: human FAM104A isoform 1, 186 amino acids (UniProt Q969W3); recombinant Strep-HA-tagged” was tested, and the p97 domain bound ([1]; full-length and truncated His6-p97 proteins) was “interacts with the p97 N-domain”, the “in vitro interaction with p97” value ([1]; purified His6-p97 WT, RIPA buffer) was “readily interacted in vitro” and the “effect on p97-UFD1-NPL4 binding to ubiquitylated proteins” value [2] was “prominent ability of VCF1 to enhance p97-UFD1-NPL4 binding to ubiquitylated proteins; also recorded: fully dependent on the ubiquitin-binding ability of the UFD1-NPL4 complex”. For the same substance, the “interaction of endogenous VCF1 with p97” value (p97; U2OS whole cell lysates) was “validate an interaction between endogenous VCF1 and p97”, the “endogenous NPL4 in endogenous VCF1 IP” value (p97; U2OS, along with p97) was “NPL4 could be detected in endogenous VCF1 IPs along with p97” and the “C1QBP in VCF1 IP” value [3] was “unable to detect C1QBP in VCF1 IPs”. The “interaction with histone H3” value [3] was “weak interaction between VCF1 and histone H3”, the “comigration in size-exclusion chromatography” value (p97-UFD1-NPL4) was “comigration of the p97-VCF1-UFD1-NPL4 complex” and the “VCF1 molecules bound per p97 hexamer” value (p97 hexamer (His6-p97)) was 2-3 molecules per p97 hexamer.
